Series [1] can be described thus: Cytotoxic test (MTT). Type of series: cell-based. Conditions: rat, PC12 cells, 48 h incubation. As to the method:
(§1) After resuscitating, the PC12 cells were cultured in RPMI-1640 containing 10% horse serum and 5% Fetus Bovine Serum (FBS) under 5% CO2 at 37° C. for two weeks. The medium was changed every other day. The compounds were diluted into solutions of 12.5, 25, 50, 100, 200, 300 μM with culture medium (except examples 33-45 with additional solutions of 400 μM and 500 μM). The PC12 cells were seeded into a 96-well plate at a density of 1.2×10^4 cells/well and cultured in a 37° C., 5% CO2 incubator for 24 hours. Remove the medium, the cells were added with the compound solutions of different concentrations as test solutions for another 48 h incubation in a 37° C., 5% CO2 incubator.
After the incubation, the wells were added with 20 μL 5 mg/mL MTT and incubated for 4 hours at 37° C. Carefully removed the medium and added 150 μL DMSO. The plates were placed on an enzyme-labeled instrument and vibrated for 5 min. The absorbance Atest solution were obtained at 490 nm with the Ablank of the well without cells and the Acontrol of the well with untreated cells. The survival rates of the cells in every well were calculated by the formula as Survival rate (%)=(Atest solution−Ablank)/(Acontrol−Ablank)*100%

Series [2] deals with PC12 cells. Description: In-vitro neuroprotection-I (H2O2 injury, MTT). Type of series: cell-based. To be noted: Rattus norvegicus, PC-12, 48 h compound, then 200 μM H2O2 24 h, MTT survival rate. As to the method: All samples were made into 60 mM stock solution by DMSO, which were 200 times diluted to 300 μM by medium. And the final concentration was further diluted into different concentrations by media.
Control: Normal cell-plating and same cell medium as other group. 24 hours later, the medium was discarded. Incubate the cell in new media for 24 hours. No compound and hydrogen peroxide treatment. Other steps were the same as the sample test as mentioned below did.
Blank: no cell plating, cell medium, and other steps were the same as the sample test as mentioned below did.
as §1, with “(except that” for “(except”, “The PC 12” for “The PC12”, “of 8×10^3” for “of 1.2×10^4”, “hours. Removed” for “hours. Remove”, “incubator. After the incubation, apart from the blank and control groups, the wells (including 0 μM drug group) were added to the medium-prepared 200 μM H2O2, and continued for another 24 h incubation in a 37° C., 5% CO2 incubator.” for “incubator.”
After the incubation, the wells were added with 20 μL 5 mg/mL MTT and incubated for 4 hours at 37° C. Carefully removed the medium and added 150 μL DMSO. The plates were placed on an enzyme-labeled instrument and vibrated for 5 min. The absorbance Atest solution were obtained at 490 nm with the Ablank of the well without cells and the Acontrol of the well with untreated cells. The survival rate of the cells in every well by the formula survival rate (%)=(Atest solution−Ablank)/(Acontrol−Ablank)*100%.

The test system of series [3] is MCAO model (middle cerebral artery ischemia-reperfusion). The experiment in a line: In vivo drug efficacy test of MCAO model. Conditions: SD rats, MCAO 2 h then reperfusion, tail vein infusion 30 min; for Cerebral infarction area (%): TTC staining, infarct area to whole brain area; for Improvements of nerve function (%): score at 24 h versus model control.

Molecules are shown by their SMILES.

These results are taken from patent US11692004B2, “Substituted pyrazole compound, preparation method therefor, pharmaceutical composition and medical use thereof” (JIANGSU VANGUARD PHARMACEUTICAL CO., LTD., priority 2018, dated 2023).

The IC50 is the midpoint of a concentration-inhibition curve. Low readings indicate higher potency, high ones lower potency. What is called EC50 is the concentration that produces a half-maximal response. Low values mean greater potency, high ones weaker potency.

As to `Cc1cc(OC(C)OC(=O)C(C)(C)C)n(-c2ccccc2)n1` (stereo not drawn) [Compound 4, 1-(3-methyl-1-phenylpyrazole) oxyethyl pivalate], in series [1], the IC50 at 48 h was above 300 µM. In series [2], the EC50 turned out to be 69.5 µM.

For `Cc1cc(OCOC(=O)c2cccc(N(C)C)c2O)n(-c2ccccc2)n1` [Compound 23, (3-methyl-1-phenylpyrazol-5-) oxymethyl-(2-hydroxy-3-N,N-dimethyl)benzoate], in series [2], the response was half-maximal at 124 µM (EC50).

In series [2], `Cc1cc(OCNC(=O)c2ccccc2)n(-c2ccccc2)n1` [Compound 48, N-((1-phenyl-3-methyl-1H-pyrazol-5-yl)oxy) methylbenzamide] had an EC50 of 123 µM.

In the case of `Cc1cc(OCNC(=O)C(C)(C)C)n(-c2ccccc2)n1` [Compound 44, N-((1-phenyl-3-methyl-1H-pyrazol-5-yl)oxy) methyltrimethylacetamide], in series [2], it took 77.9 µM to reach a half-maximal effect (EC50).

Compound `CC(=O)OCOc1cc(C)nn1-c1ccccc1` [Compound 26] had an IC50 at 48 h in series [1] above 300 µM. This compound also showed an EC50 in series [2] of 54.8 µM.

`Cc1cc(OCOC(=O)C(C)(C)C)n(-c2ccccc2)n1` [Compound 13, (3-methyl-1-phenylpyrazol-5-) oxymethyl pivalate]: in series [3], the “Cerebral infarction area (%)” value worked out at 17.5% and the “Improvements of nerve function (%)” value is recorded as 17.2%. The compound also came in with an IC50 at 48 h in series [1] of 252 µM. The same compound yielded an EC50 in series [2] of 110 µM.

Consider `Cc1cc(OC(C)OC(=O)CCCc2ccccc2)n(-c2ccccc2)n1` (stereo not drawn) [Compound 9, 1-(3-methyl-1-phenylpyrazole)oxyethyl phenylbutyrate], for which, in series [3], the “Cerebral infarction area (%)” value came to 19.8% and the “Improvements of nerve function (%)” value came out at 16.0%. In addition, in series [1], the IC50 at 48 h was above 300 µM. In series [2], this compound came in with an EC50 of 120 µM.

Consider `CC(=O)NCOc1cc(C)nn1-c1ccccc1` [Compound 41, N-((1-phenyl-3-methyl-1H-pyrazol-5-yl)oxy) methylacetamide], for which the EC50 in series [2] is 55.1 µM.

In series [2], `Cc1cc(OCOC(=O)c2ccccc2OC(=O)C(C)C)n(-c2ccccc2)n1` [Compound 22, (3-methyl-1-phenylpyrazol-5-)oxymethyl-(2-isobutyryloxy)benzoic acid] registered an EC50 of 103 µM.

`Cc1cc(OCNC(=O)C2CCCCC2)n(-c2ccccc2)n1` [Compound 47, N-((1-phenyl-3-methyl-1H-pyrazol-5-yl)oxy) methylcyclohexanecarboxamide] registered an IC50 at 48 h in series [1] of 269 µM. In addition, the EC50 in series [2] was 53.6 µM.

`Cc1cc(OCOC(=O)C2CCCCC2)n(-c2ccccc2)n1` [Compound 30]: the EC50 in series [2] worked out at 77.2 µM.

The compound `Cc1cc(OCOC(=O)c2cccnc2)n(-c2ccccc2)n1` [Compound 17, (3-methyl-1-phenylpyrazol-5-) oxymethyl nicotinate] returned an IC50 at 48 h in series [1] above 300 µM. Besides, the EC50 in series [2] stood at 94.9 µM.

Take `CCCCCCCC(=O)OCOc1cc(C)nn1-c1ccccc1` [Compound 15, (3-methyl-1-phenylpyrazol-5-) oxymethyl octanoate]: in series [3], the “Cerebral infarction area (%)” value stood at 20.0% and the “Improvements of nerve function (%)” value is 15.9%. The compound further yielded an EC50 in series [2] of 67.2 µM.

As to `Cc1cc(OCNC(=O)Cc2ccccc2)n(-c2ccccc2)n1` [Compound 49, N-((1-phenyl-3-methyl-1H-pyrazol-5-yl)oxy) methylphenylacetamide], in series [1], the IC50 at 48 h is above 300 µM.

In series [1], `CCCCCCCC(=O)OC(C)Oc1cc(C)nn1-c1ccccc1` (stereo not drawn) [Compound 5, 1-(3-methyl-1-phenylpyrazole)oxyethyl octanoate] returned an IC50 at 48 h above 300 µM.

For the compound `Cc1cc(OC(C)OC(=O)c2ccccc2)n(-c2ccccc2)n1` (stereo not drawn) [Compound 7, 1-(3-methyl-1-phenylpyrazole) oxyethyl benzoate], the IC50 at 48 h in series [1] is above 300 µM. Further, in series [2], a half-maximal effect (EC50) was put at 88.9 µM.

The compound `Cc1cc(OC(C)OC(=O)C2CCCCC2)n(-c2ccccc2)n1` (stereo not drawn) [Compound 12] displayed an EC50 in series [2] of 89 µM.

Turning to `Cc1cc(OCNC(=O)C(C)C)n(-c2ccccc2)n1` [Compound 43, N-((1-phenyl-3-methyl-1H-pyrazol-5-yl)oxy) methylisobutyramide], in series [3], the “Cerebral infarction area (%)” value is listed as 19.8% and the “Improvements of nerve function (%)” value amounted to 16.1%. In series [2], this compound came in with an EC50 of 58.1 µM.

Take `Cc1cc(OCOC(=O)Cc2ccccc2)n(-c2ccccc2)n1` [Compound 31]: the EC50 in series [2] stood at 91.2 µM.

`Cc1cc(OCOC(=O)c2ccccc2)n(-c2ccccc2)n1` [Compound 18, (3-methyl-1-phenylpyrazol-5-) oxymethyl benzoate] displayed an IC50 at 48 h in series [1] above 300 µM. Also, a half-maximal effect in series [2] (EC50) was put at 75 µM.

`Cc1cc(OCOC(=O)C(C)C)n(-c2ccccc2)n1` [Compound 14, (3-methyl-1-phenylpyrazol-5-) oxymethyl isobutyrate] showed an EC50 in series [2] of 45.2 µM.

Turning to `Cc1cc(OCOC(=O)C2CC2)n(-c2ccccc2)n1` [Compound 28], a half-maximal effect in series [2] (EC50) was put at 85.9 µM.

`CCCCCCCCCCCCCCCCCC(=O)NCOc1cc(C)nn1-c1ccccc1` [Compound 52, N-((1-phenyl-3-methyl-1H-pyrazol-5-yl)oxy)methyl stearamide]: in series [2], it took 78.6 µM to reach a half-maximal effect (EC50).

On to `Cc1cc(OCNC(=O)C2CC2)n(-c2ccccc2)n1` [Compound 45, N-((1-phenyl-3-methyl-1H-pyrazol-5-yl)oxy) methylcyclopropylformamide], for which the EC50 in series [2] was 75.3 µM.

Consider `Cc1cc(OCOC(=O)c2ccccc2O)n(-c2ccccc2)n1` [Compound 19, (3-methyl-1-phenylpyrazol-5-) oxymethyl-(2-hydroxy) benzoate], for which the IC50 at 48 h in series [1] is above 300 µM.

Regarding `Cc1cc(OCNC(=O)CCCc2ccccc2)n(-c2ccccc2)n1` [Compound 50, N-((1-phenyl-3-methyl-1H-pyrazol-5-yl)oxy) methylphenylbutyramide], in series [2], it took 101 µM to reach a half-maximal effect (EC50).

In series [1], `Cc1cc(OC(C)OC(=O)C(C)C)n(-c2ccccc2)n1` (stereo not drawn) [Compound 3, 1-(3-methyl-1-phenylpyrazole) oxyethyl isobutyrate] returned an IC50 at 48 h above 300 µM. This compound also displayed an EC50 in series [2] of 98 µM.

For the compound `CCCCCCCCCCCCCCCCCC(=O)OC(C)Oc1cc(C)nn1-c1ccccc1` (stereo not drawn) [Compound 6], the EC50 in series [2] is 56.8 µM.

Regarding `CCOC(=O)Oc1ccc(N(C)C)cc1C(=O)OCOc1cc(C)nn1-c1ccccc1` [Compound 25, (3-methyl-1-phenylpyrazole-5-) oxymethyl-(2-ethoxycarbonyloxy-5-N,N-dimethyl)benzoic Acid], in series [1], the IC50 at 48 h was above 300 µM. The compound further yielded an EC50 in series [2] of 59.3 µM.

In series [2], `CC(=O)OC(C)Oc1cc(C)nn1-c1ccccc1` (stereo not drawn) [Compound 1] came in with an EC50 of 66.4 µM.

In series [2], `CCOC(=O)Oc1ccccc1C(=O)OCOc1cc(C)nn1-c1ccccc1` [Compound 21, (3-methyl-1-phenylpyrazole-5-) oxymethyl-(2-ethoxycarbonyloxy) benzoate] displayed an EC50 of 82.1 µM.

Consider `CCCCCCCCCCCCCCCCCC(=O)OCOc1cc(C)nn1-c1ccccc1` [Compound 32], for which the IC50 at 48 h in series [1] was above 300 µM. For the same compound, it took 80.7 µM to reach a half-maximal effect in series [2] (EC50).

In series [2], `Cc1cc(OCNC(=O)C2CCCC2)n(-c2ccccc2)n1` [Compound 46, N-((1-phenyl-3-methyl-1H-pyrazol-5-yl)oxy) methylcyclopentylformamide] yielded an EC50 of 90.1 µM.

For the compound `Cc1cc(OC(C)OC(=O)C2CC2)n(-c2ccccc2)n1` (stereo not drawn) [Compound 10], the midpoint of the response in series [2], the EC50, lay at 55.7 µM.

For the compound `Cc1cc(OC(C)OC(=O)Cc2ccccc2)n(-c2ccccc2)n1` (stereo not drawn) [Compound 8], in series [2], the EC50 came out at 100 µM.
